From patent US20060183888A1 (priority 2004, published 2006)

Experiments:
PylS-His6 [1] = target: T1, PylS-His6 (Methanosarcina barkeri, UniProt Q6WRH6)
Protocol: The pyrophosphate exchange reaction was essentially performed following the method of Cole and Schimmel. All reactions were performed in duplicate at 37° C. The 100 to 200 μl reactions contained (unless noted) 0.3 to […] PylSHis6. […] The specific activity of the radiolabel was adjusted from 4 to 10 dpm/pmol). The concentration of protein was 0.3 to 1 μM. At specific times, 25 μl aliquots were removed and quenched in 500 μl of a stop solution containing 1.6% (w/v) activated acid-washed charcoal (Sigma Chemical Co., St. Louis, Mo.), 80 mM sodium tetrapyrophosphate, and 3.5% (v/v) perchloric acid. Samples were filtered through Whatman GF/C glass-fiber filters and then the filter was washed three times with 5 ml of 40 mM sodium tetrasodium pyrophosphate solution containing 1.7% perchloric acid (v/v) and once with 5 ml 100% ethanol. Filters were dried at 80° C. for 5 minutes then placed in 20 ml scintillation vials containing 10 ml of Ultima Gold F scintillation cocktail (PerkinElmer), shaken once, and counted in a liquid scintillation analyzer. Identical reactions without amino acid, ATP, or enzyme were also set up as negative controls in duplicate. […] One substrate was kept constant at a concentration higher than its respective apparent Km value.

NMR H/D exchange studies = assay type: physicochemical
Protocol: Compound 7 (˜4 mg, ˜10 μmol) was dissolved in CD3OD (0.75 mL), and D2O (2 drops) was added. The reaction mixture was kept at rt and monitored by NMR (400 MHz). […] NaOD (30% w/w in D2O, 2 drops) was then added, and the solution monitored by NMR. […] After 25 h, the C5 proton peak completely disappeared.
To rule out the possibility that the loss of the C5 proton peak was due to decomposition, the resulting mixture was evaporated at rt under reduce pressure, and the residue was redissolved in CH3OH and allowed to stir for 1 day. The mixture was then evaporated to dryness in vacuo, and redissolved in CD3OD. The NMR spectrum was quickly taken, and the C5 proton peak was again observed. As before, the C5 proton peak slowly disappeared over a 1-day period.
To evaluate the importance of the imine bond on the acidity of the C5 proton, proline was dissolved in 0.75 mL CD3OD and 0.20 mL D2O and treated with […].

[2] = Stability studies to NaOH, LiOH, TFA (TLC); assay type: physicochemical
Protocol: Stability Studies of Compound (8) to NaOH. NaOH (6 M, 20 μL, 0.12 mmol) was added to a solution of compound 8 (0.15 M, 100 μL, 0.015 mmol). The resulting mixture was allowed to react at rt over 3 days, during which the degradation of compound 8 was monitored by a ninhydrin TLC assay (CHCl3—MeOH—NH4OH(aq)=2:2:1).
Stability Studies of Compound (8) to LiOH. Compound 8 (21.9 mg, 84 μmol) was dissolved in water (2 mL) and LiOH-H2O (84.5 mg, 2.0 mmol) was added. This mixture was allowed to react at rt. […] After 5 days, the solution was evaporated to dryness at rt, redissolved in MeOH (0.5 mL), and purified on chromatography silica gel.
Stability Studies of Compound (8) to TFA. Compound 8 (21.7 mg, 0.083 mmol) was dissolved in MeOH (2 mL) and TFA (200 μL) was added. […] The mixture was allowed to react to completion for 2 days at rt. The resulting mixture was evaporated to dryness, dissolved in MeOH (0.5 mL), and subjected to chromatography on silica gel.

His6-PylS = target: T2, His6-PylS (Methanosarcina barkeri, UniProt Q6WRH6); experiment: Gel-shift aminoacylation assay with N-terminally His-tagged PylS; assay type: biochemical
T2 construct: His6 (hexahistidine) (N); made in house
T2 sequence (Q6WRH6 whole entry): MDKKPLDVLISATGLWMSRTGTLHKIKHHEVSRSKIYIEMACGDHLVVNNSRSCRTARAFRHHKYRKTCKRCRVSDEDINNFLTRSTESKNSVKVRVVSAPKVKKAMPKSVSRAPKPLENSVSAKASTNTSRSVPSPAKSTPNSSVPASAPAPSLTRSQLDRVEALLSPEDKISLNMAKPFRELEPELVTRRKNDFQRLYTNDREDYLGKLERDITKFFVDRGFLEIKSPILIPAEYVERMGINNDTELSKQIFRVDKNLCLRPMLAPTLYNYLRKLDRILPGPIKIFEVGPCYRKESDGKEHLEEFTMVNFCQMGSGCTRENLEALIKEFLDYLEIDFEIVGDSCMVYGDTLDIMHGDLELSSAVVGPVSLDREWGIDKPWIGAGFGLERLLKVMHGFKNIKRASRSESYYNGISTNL
Protocol: (§1) The reaction was terminated after 5-30 min at 37° C. with an equal volume of 0.3 M sodium acetate, 8 M urea pH 5.0. Charged and uncharged tRNA were separated by acid-urea acrylamide gel electrophoresis, blotted to nitrocellulose and probed with a 5μ ^32P-end-labelled, 72-base oligonucleotide complementary to tRNACUA. Radioactivity was analysed with a STORM Phosphorimager (Amersham Biosciences).
Aminoacylation assay in acid-urea gels. […] Following incubation at 37° C. for 5 to 30 minutes, the reaction was terminated by addition of an equal volume of 2× loading dye (0.3 M sodium acetate, 8 M urea, pH 5.0) and charged and uncharged tRNA species analysed by acid-urea acrylamide gel electrophoresis following the methods outlined in Jester et al. Samples were electrophoresed in 14% polyacrylamide gels buffered with a 0.3 M sodium acetate-7 M urea solution, pH 5.0, at 50 volts and 4° C. for 24 hours. The same buffer without urea was used in the electrode chambers, and was replaced with fresh buffer every 6-8 hours. Finished gels were transblotted for 2 hours at 40 volts in 4° C. in a blotting solution of 10 mM Tris-acetate, 5 mM sodium acetate, and 0.5 mM EDTA, pH 8.0. […] Radioactivity on the blot was imaged and analyzed using a STORM Phosphorimager (Amersham Biosciences).

[3] = tested on: E. coli BL21 (DE3) expressing pylT, pylS and mtmB1; experiment: Pyrrolysine-dependent amber suppression (mtmB1 UAG readthrough, anti-MtmB immunoblot); assay type: cell-based; conditions: 1 mM in the medium, induced 4 h
Protocol: To test for amber suppression, overnight cultures were grown in Luria-Bertani broth (3 ml) with 100 μg ml^−1 ampicillin. Subsequently, 200 μl was inoculated into 1 ml fresh medium and grown to a D600 of 0.6. […] The mtmB1 gene products in equivalent amounts of lysates were then analysed by immunoblotting of a SDS 12.5% polyacrylamide gel with affinity-purified rabbit anti-MtmB antibody^6. The Rainbow Molecular Weight markers (Amersham Biosciences) were used.
To test for amber suppression, overnight cultures of a strain bearing one of the plasmids were grown in LB broth (3 mL) with 100 ug/ml final ampicillin. Subsequently, 200 μl of each culture was inoculated into 1 ml of fresh LB medium with ampicillin, and grown to an A600 of approximately 0.6. […] The cultures were then centrifuged for 1 minute 16,000×g, and the cell pellets lysed in 125 mM Tris HCl, 4.6% SDS, 20% glycerol and 10% (v/v) β-mercaptoethanol, pH 6.8, at 90 degrees for 10 minutes.
Extracts were electrophoresed in a 12.5% SDS-PAGE gel, then electroblotted overnight at 150 mA onto PVDF membrane (Bio-Rad Labs, Hercules, Calif.). The membrane was then incubated for 1 hour at room temperature with Western Breeze blocking solution (Invitrogen). […]

PylS-His6 [4] = target: T1, PylS-His6; experiment: Aminoacylation of tRNACUA, acid-urea gel shift and northern blot; assay type: biochemical; set-up: made in house; host or cells: E. coli BL21 (DE3)
Protocol: as §1
Aminoacylation assay in acid-urea gels. […] Following incubation at 37° C. for 5 to 30 minutes, the reaction was terminated by addition of an equal volume of 2× loading dye (0.3 M sodium acetate, 8 M urea, pH 5.0) and charged and uncharged tRNA species analysed by acid-urea acrylamide gel electrophoresis following the methods outlined in Jester et al. Samples were electrophoresed in 14% polyacrylamide gels buffered with a 0.3 M sodium acetate-7 M urea solution, pH 5.0, at 50 volts and 4° C. for 24 hours. The same buffer without urea was used in the electrode chambers, and was replaced with fresh buffer every 6-8 hours. Finished gels were transblotted for 2 hours at 40 volts in 4° C. in a blotting solution of 10 mM Tris-acetate, 5 mM sodium acetate, and 0.5 mM EDTA, pH 8.0. The blot was then cross-linked by ultraviolet radiation (15000 μJ/cm2 per side) then prehybrized in 0.25 M sodium phosphate buffer, pH 7.2, and 5.7% SDS for at least 30 minutes. In order to detect charged and uncharged tRNACUA a 72 base oligonucleotide complementary to full length of tRNACUA was labeled with γ-^32P ATP and polynucleotide kinase. The probe was hybridized with the blot overnight at room temperature, then agitated at 22° C. for 5 minute in 10 mM sodium citrate, 150 mM NaCl, 1% SDS, pH 7.0, then agitated with two changes of 5 mM sodium citrate, 75 mM sodium chloride, 1% SDS, pH 7.0, for 5 minutes each. Radioactivity on the blot was imaged and analyzed using a STORM Phosphorimager (Amersham Biosciences).

[5] = tested on: E. coli BW25141(DE3) with pylT, pylS and UAG-mutant uidA; assay type: cell-based
Excerpt: In order to avoid interference by the residue uidA gene, we employed a strain with most ofuidA deleted, E. coli BW25141(DE3). This strain was transformed with pDLGUS, a variant of the pEC03 plasmid in which the mtmB1 gene was removed and the uidA gene introduced in its place.

T1 sequence (Q6WRH6 whole entry): as above

Nc1ncnc2c1ncn2[C@@H]1O[C@H](COP(=O)(O)OP(=O)(O)OP(=O)(O)O)[C@@H](O)[C@H]1O [ATP]
Km (PylS-His6 [1]; read-out: apparent Km, 37° C., pH 7.2): 2 µM

COC(=O)[C@H](CCCCNC(=O)[C@@H]1N=CC[C@H]1C)NC(=O)C(F)(F)F [Compound 7, Nα-Trifluoroacetyl-L-pyrrolysine methyl ester]
change in NMR (NMR H/D exchange studies; CD3OD with D2O, rt, 3-day period): No change was observed | time to complete disappearance of the C5 proton peak (H/D exchange) (NMR H/D exchange studies; NaOD added, CD3OD/D2O): 25 h

C[C@@H]1CC=N[C@H]1C(=O)NCCCC[C@H](N)C(=O)[O-].[Li+] [Compound 8, L-Pyrrolysine lithium salt]
degradation by LiOH (TLC) ([2]; LiOH in water, rt, after 24 h): two new bands | degradation by NaOH (ninhydrin TLC) ([2]; NaOH, rt, over 3 days): One new band | degradation by TFA (TLC) ([2]; TFA in MeOH, after 1 h, complete in 2 days at rt): one new band

NCCCC[C@H](N)C(=O)O [lysine, reference compound]
tRNA synthetase activity (His6-PylS): no lysyl-tRNA synthetase activity was detectable | UAG readthrough of mtmB1 (50-kDa MtmB) [3]: could not be replaced | isotopic exchange into ATP above background (PylS-His6 [1]; 1 mM, up to 30 min): no detectable isotopic exchange | aminoacylation of tRNAIYS in the M. acetivorans tRNA pool (PylS-His6 [4]): does not aminoacylate | formation of charged tRNACUA species (PylS-His6 [4]; amino acids at 50 μM, cellular tRNA pool): not formed

O=C(O)[C@@H]1CCCN1 [proline, reference compound]
H/D exchange of protons on ring carbons (NMR H/D exchange studies; CD3OD/D2O with base, rt, 1 day): No evidence for H/D exchange

C[C@@H]1CC=N[C@H]1C(=O)NCCCC[C@H](N)C(=O)O [pyrrolysine, L-pyrrolysine]
tRNA synthetase activity (His6-PylS): does have pyrrolysyl-tRNA synthetase activity | UAG readthrough of mtmB1 (50-kDa MtmB) [3]: large amounts of 50-kDa MtmB | apparent Vmax (PylS-His6 [1]; exchange reaction): 120 nmol min^−1 per mg PylS | conversion under acidic conditions ([2]; acidic conditions): converted to its enamine form | aminoacylation of tRNAIYS in the M. acetivorans tRNA pool (PylS-His6 [4]): does not aminoacylate | maximal conversion of deacylated tRNACUA to charged species (PylS-His6 [4]; deacylated M. acetivorans cellular tRNA pool, with ATP and PylS-His6): 50% | maximum of tRNACUA transcribed in vitro aminoacylated (PylS-His6 [4]; in vitro transcribed tRNACUA): 43% | increase of beta-glucuronidase activity ([5]; 1 mM synthetic pyrrolysine versus absence of pyrrolysine): approximately 100 fold | beta-glucuronidase activity ([5]; induced with IPTG, 1 mM synthetic pyrrolysine): 4. umol/min·mg protein
